From patent US9518052B2, “Pyrazolopyridines and pyrazolopyrimidines” (Pfizer Inc., priority 2014, dated 2016)

Assays:
Type in all cases: biochemical
Conditions in all cases: Caliper assay at 1 mM ATP
[1] = target: JAK3 (Homo sapiens (Human), UniProt P52333); test: JAK Caliper Enzyme Assay at 1 mM ATP (JAK3)
Description: (§1) JAK Caliper Enzyme Assay at 1 mM ATP
(§2) Test article was solubilized in dimethyl sulfoxide (DMSO) to a stock concentration of 30 mM. An 11-point half log dilution series was created in DMSO with a top concentration of 600 μM. […] The compound plates were diluted 1 to 60 resulting in a top final assay compound concentration of 10 μM and a 2% DMSO concentration.
(§3) Test article and assay controls were added to a 384-well plate. Reaction mixtures contained 20 mM HEPES, pH 7.4, 10 mM magnesium chloride, 0.01% bovine serum albumin (BSA), 0.0005% Tween 20, 1 mM ATP and 1 μM peptide substrate. […] Enzyme concentrations and incubation times were optimized for each new enzyme preps and were modified slightly over time to ensure 20%-30% phosphorylation. The assays were stopped with a final concentration of 10 mM EDTA, 0.1% Coating Reagent and 100 mM HEPES, pH=7.4. The assay plates were placed on a Caliper Life Science Lab Chip 3000 (LC3000) instrument, and each well was sampled using appropriate separation conditions to measure the unphosphorylated and phosphorylated peptide.

[2] = target: JAK1 (Homo sapiens (Human), UniProt P23458); test: JAK Caliper Enzyme Assay at 1 mM ATP (JAK1)
JAK1, sequence (P23458 whole entry, species assumed): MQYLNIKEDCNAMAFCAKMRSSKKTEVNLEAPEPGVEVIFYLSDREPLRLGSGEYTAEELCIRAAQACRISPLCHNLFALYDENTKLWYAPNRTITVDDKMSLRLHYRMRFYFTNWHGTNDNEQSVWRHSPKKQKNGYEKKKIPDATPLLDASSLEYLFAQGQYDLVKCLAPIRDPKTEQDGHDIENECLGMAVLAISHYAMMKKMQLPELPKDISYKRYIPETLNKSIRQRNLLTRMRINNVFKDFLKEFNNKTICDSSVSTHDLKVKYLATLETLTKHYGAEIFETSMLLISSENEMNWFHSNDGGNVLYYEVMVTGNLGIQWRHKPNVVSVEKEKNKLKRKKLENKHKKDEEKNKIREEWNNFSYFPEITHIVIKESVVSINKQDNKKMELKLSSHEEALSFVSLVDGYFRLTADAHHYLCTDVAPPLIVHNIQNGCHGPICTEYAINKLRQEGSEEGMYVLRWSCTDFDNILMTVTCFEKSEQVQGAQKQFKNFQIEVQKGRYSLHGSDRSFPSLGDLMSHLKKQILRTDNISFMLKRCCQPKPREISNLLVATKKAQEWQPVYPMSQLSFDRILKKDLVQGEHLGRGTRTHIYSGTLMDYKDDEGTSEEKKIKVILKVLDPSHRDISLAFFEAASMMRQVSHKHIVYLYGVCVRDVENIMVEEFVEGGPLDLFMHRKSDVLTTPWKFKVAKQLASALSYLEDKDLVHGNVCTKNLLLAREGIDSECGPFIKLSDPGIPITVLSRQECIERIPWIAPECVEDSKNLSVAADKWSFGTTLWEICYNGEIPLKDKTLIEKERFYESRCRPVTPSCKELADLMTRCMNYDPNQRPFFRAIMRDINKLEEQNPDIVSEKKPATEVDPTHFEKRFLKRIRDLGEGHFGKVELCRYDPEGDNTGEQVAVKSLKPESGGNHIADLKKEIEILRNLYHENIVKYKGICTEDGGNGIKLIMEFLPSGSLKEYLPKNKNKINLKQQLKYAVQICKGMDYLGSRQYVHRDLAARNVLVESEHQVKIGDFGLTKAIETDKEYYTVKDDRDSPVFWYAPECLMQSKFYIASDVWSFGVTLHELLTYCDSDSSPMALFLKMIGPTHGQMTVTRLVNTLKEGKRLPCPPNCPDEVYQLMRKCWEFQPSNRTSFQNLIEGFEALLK
Description: as §1, §2, §3

[3] = target: TYK2 (Homo sapiens (Human), UniProt P29597); test: JAK Caliper Enzyme Assay at 1 mM ATP (TYK2)
TYK2, sequence (P29597 whole entry, species assumed): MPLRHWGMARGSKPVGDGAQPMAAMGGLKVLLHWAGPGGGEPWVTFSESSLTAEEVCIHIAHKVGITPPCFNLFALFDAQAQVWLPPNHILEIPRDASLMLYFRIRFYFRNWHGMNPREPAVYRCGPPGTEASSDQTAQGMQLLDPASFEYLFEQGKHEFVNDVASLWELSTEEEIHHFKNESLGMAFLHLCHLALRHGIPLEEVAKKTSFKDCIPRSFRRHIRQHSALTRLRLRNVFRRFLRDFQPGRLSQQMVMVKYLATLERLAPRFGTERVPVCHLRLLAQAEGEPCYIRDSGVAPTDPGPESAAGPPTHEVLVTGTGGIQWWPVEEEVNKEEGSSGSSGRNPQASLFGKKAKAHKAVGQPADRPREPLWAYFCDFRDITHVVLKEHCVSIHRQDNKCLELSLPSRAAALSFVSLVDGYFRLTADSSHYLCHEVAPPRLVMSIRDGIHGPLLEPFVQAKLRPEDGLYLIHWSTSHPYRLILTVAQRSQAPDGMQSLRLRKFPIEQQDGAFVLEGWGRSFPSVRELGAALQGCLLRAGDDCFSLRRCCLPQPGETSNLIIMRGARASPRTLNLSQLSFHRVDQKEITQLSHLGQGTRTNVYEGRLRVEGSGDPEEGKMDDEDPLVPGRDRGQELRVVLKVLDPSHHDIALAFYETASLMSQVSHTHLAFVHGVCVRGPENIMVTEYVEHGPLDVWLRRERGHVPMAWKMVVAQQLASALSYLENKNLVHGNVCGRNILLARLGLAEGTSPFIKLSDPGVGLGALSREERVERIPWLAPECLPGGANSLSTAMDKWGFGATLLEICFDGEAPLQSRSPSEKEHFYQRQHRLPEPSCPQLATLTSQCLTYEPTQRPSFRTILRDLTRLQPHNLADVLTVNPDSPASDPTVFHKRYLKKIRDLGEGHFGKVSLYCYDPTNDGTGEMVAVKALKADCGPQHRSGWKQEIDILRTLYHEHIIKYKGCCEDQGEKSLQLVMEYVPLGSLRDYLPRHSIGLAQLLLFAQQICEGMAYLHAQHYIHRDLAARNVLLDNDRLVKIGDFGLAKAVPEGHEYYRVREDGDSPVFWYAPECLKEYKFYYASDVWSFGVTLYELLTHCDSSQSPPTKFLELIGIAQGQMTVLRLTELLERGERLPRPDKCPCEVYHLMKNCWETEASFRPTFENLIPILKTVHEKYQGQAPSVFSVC
Description: as §1, §2, §3

[4] = target: JAK2 (Homo sapiens (Human), UniProt O60674); test: JAK Caliper Enzyme Assay at 1 mM ATP (JAK2)
JAK2, sequence (O60674 whole entry, species assumed): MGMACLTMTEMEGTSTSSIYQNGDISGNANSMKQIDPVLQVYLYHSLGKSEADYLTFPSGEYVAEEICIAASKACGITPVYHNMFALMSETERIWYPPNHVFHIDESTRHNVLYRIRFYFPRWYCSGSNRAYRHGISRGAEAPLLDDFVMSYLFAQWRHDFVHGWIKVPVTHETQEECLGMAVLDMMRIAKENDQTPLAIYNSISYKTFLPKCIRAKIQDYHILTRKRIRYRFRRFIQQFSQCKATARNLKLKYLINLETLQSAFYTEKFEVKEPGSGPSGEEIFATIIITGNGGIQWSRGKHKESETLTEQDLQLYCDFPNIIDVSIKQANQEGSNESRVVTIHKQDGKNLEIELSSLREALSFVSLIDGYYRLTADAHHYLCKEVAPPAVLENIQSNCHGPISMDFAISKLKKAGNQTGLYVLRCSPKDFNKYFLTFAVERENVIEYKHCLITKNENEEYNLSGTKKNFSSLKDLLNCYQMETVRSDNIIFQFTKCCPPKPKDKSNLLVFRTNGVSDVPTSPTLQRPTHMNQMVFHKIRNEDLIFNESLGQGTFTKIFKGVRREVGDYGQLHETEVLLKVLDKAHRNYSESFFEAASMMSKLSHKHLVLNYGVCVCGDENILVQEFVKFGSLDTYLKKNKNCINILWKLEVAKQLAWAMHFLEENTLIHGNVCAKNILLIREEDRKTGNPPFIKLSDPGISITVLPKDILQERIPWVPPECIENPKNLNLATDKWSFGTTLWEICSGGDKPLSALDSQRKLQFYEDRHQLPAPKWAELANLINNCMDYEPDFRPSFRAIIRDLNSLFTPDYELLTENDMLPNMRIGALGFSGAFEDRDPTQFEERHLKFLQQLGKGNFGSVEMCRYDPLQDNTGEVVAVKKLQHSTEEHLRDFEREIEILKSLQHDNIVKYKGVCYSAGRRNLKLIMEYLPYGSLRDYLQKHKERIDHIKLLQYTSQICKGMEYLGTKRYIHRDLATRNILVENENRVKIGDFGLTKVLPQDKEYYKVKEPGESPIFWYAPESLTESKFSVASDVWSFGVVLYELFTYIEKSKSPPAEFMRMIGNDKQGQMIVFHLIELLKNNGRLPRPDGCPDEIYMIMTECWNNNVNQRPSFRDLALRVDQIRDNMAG
Description: as §1, §2, §3

JAK3, sequence (P52333 whole entry, species assumed): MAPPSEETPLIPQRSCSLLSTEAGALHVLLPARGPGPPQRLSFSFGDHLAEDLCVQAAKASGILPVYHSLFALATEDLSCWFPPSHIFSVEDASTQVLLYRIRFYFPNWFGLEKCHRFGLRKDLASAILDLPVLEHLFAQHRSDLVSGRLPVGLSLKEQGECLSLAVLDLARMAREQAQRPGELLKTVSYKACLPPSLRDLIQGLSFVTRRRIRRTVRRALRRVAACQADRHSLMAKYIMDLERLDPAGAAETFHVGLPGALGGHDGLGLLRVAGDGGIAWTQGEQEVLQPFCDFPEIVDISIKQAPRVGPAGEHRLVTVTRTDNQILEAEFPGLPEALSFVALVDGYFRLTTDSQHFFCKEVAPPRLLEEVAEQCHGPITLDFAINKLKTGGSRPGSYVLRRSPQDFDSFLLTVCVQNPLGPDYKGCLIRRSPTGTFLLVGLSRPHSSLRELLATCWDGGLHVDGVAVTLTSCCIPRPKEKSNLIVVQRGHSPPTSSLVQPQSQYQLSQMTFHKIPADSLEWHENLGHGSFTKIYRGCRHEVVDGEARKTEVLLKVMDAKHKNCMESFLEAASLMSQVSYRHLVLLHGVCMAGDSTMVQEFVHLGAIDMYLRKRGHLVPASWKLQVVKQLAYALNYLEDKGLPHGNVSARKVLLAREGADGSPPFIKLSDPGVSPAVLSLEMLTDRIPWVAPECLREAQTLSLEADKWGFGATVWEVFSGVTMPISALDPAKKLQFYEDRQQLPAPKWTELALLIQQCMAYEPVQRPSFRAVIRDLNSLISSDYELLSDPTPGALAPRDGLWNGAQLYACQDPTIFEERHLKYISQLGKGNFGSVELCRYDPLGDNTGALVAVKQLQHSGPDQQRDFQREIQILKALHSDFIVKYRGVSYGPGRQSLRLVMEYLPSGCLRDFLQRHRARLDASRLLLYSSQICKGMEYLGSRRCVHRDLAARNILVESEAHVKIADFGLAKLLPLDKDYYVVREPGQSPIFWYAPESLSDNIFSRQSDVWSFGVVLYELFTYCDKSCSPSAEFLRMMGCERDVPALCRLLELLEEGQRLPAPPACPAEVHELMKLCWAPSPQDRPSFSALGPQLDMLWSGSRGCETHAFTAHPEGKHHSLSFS

CCc1cc(O)c(F)cc1-c1cc2[nH]nc(C(=O)NC)c2c(N[C@@H](C)c2ccccc2N(C)S(C)(=O)=O)n1 [Example 39, 6-(2-Ethyl-5-fluoro-4-hydroxyphenyl)-N-methyl-4-{[(1S)-1-{2-[methyl(methylsulfonyl)amino]phenyl}ethyl]amino}-1H-pyrazolo[4,3-c]pyridine-3-carboxamide]
IC50 [1]: 278 nM | IC50 [2]: 32.3 nM | IC50 [3]: 320 nM | IC50 [4]: 48.2 nM

CCc1cc(O)c(F)cc1-c1cc2[nH]nc(C(N)=O)c2c(NCc2ccccc2N(C)S(=O)(=O)c2ccccc2)n1 [Example 40, 6-(2-Ethyl-5-fluoro-4-hydroxyphenyl)-4-({2-[methyl(phenylsulfonyl)amino]benzyl}amino)-1H-pyrazolo[4,3-c]pyridine-3-carboxamide]
IC50 [1]: 130 nM | IC50 [2]: 4.6 nM | IC50 [3]: 18.1 nM | IC50 [4]: 23.1 nM

CCN(c1ccc(O)cc1CNc1nc(-c2cc(F)c(O)cc2CC(F)(F)F)cc2[nH]nc(C(N)=O)c12)S(=O)(=O)c1ccccc1 [Example 43, 4-({2-[ethyl(phenyl-sulfonyl)amino]-5-hydroxybenzyl}amino)-6-[5-fluoro-4-hydroxy-2-(2,2,2-trifluoroethyl)-phenyl]-1H-pyrazolo[4,3-c]pyridine-3-carboxamide]
IC50 [1]: 1070 nM | IC50 [2]: 55.1 nM | IC50 [3]: 439 nM | IC50 [4]: 302 nM

CCN(c1nccnc1CNc1nc(-c2cc(F)c(O)cc2CC(F)(F)F)cc2[nH]nc(C(=O)NC)c12)S(C)(=O)=O [Example 45, 4-[({3-[ethyl(methyl-sulfonyl)-amino]pyrazin-2-yl}methyl)amino]-6-[5-fluoro-4-hydroxy-2-(2,2,2-trifluoroethyl)phenyl]-N-methyl-1H-pyrazolo[4,3-c]pyridine-3-carboxamide]
IC50 [1]: 68.7 nM | IC50 [2]: 4 nM | IC50 [3]: 148 nM | IC50 [4]: 18.9 nM

CN(c1ccccc1CNc1nc(-c2cc(F)c(O)cc2C2CC2)cc2[nH]nc(C(N)=O)c12)S(C)(=O)=O [Example 47, 6-(2-cyclopropyl-5-fluoro-4-hydroxyphenyl)-4-({2-[methyl(methylsulfonyl)amino]benzyl}amino)-1H-pyrazolo[4,3-c]pyridine-3-carboxamide]
IC50 [1]: 54.3 nM | IC50 [2]: 10.6 nM | IC50 [3]: 320 nM | IC50 [4]: 28.4 nM

CNC(=O)c1n[nH]c2cc(-c3cc(F)c(O)cc3CC(F)(F)F)nc(NCc3nccnc3N(C)S(C)(=O)=O)c12 [Example 51, 6-[5-fluoro-4-hydroxy-2-(2,2,2-trifluoroethyl)phenyl]-N-methyl-4-[({3-[methyl(methylsulfonyl)amino]pyrazin-2-yl}methyl)amino]-1H-pyrazolo[4,3-c]pyridine-3-carboxamide]
IC50 [1]: 66.9 nM | IC50 [2]: 3.5 nM | IC50 [3]: 226 nM | IC50 [4]: 20.8 nM

CCN(c1ncccc1CNc1nc(-c2cc(F)c(O)cc2CC(F)(F)F)cc2[nH]nc(C(N)=O)c12)S(C)(=O)=O [Example 52, 4-[({2-[ethyl(methyl-sulfonyl)-amino]pyridin-3-yl}methyl)amino]-6-[5-fluoro-4-hydroxy-2-(2,2,2-trifluoroethyl)phenyl]-1H-pyrazolo[4,3-c]pyridine-3-carboxamide]
IC50 [1]: 46.3 nM | IC50 [2]: 2.9 nM | IC50 [3]: 109 nM | IC50 [4]: 15 nM

CNC(=O)c1n[nH]c2cc(-c3cc(F)c(O)cc3CC(F)(F)F)nc(NCc3ncccc3N(C)S(C)(=O)=O)c12 [Example 55, 6-[5-Fluoro-4-hydroxy-2-(2,2,2-trifluoroethyl)phenyl]-N-methyl-4-[({3-[methyl(methylsulfonyl)amino]pyridin-2-yl}methyl)amino]-1H-pyrazolo[4,3-c]pyridine-3-carboxamide]
IC50 [1]: 54 nM | IC50 [2]: 2.1 nM | IC50 [3]: 45.9 nM | IC50 [4]: 13.7 nM

CCc1cc(O)c(F)cc1-c1cc2[nH]nc(C(=O)Nc3ccc(C)nc3)c2c(NCc2ccccc2N(C)S(C)(=O)=O)n1 [Example 56, 6-(2-ethyl-5-fluoro-4-hydroxy-phenyl)-4-({2-[methyl(methylsulfonyl)amino]benzyl}amino)-N-(6-methylpyridin-3-yl)-1H-pyrazolo[4,3-c]pyridine-3-carboxamide]
IC50 [1]: 135 nM | IC50 [2]: 6.6 nM | IC50 [3]: 19.9 nM | IC50 [4]: 26.1 nM

CNC(=O)c1n[nH]c2cc(-c3cc(F)c(O)cc3CC(F)(F)F)nc(NCc3ccccc3N(C)S(=O)(=O)c3cn[nH]c3)c12 [Example 58, 6-(5-fluoro-4-hydroxy-2-(2,2,2-trifluoroethyl)phenyl)-N-methyl-4-((2-(N-methyl-1H-pyrazole-4-sulfonamido)benzyl)amino)-1H-pyrazolo[4,3-c]pyridine-3-carboxamide]
IC50 [1]: 236 nM | IC50 [2]: 10.3 nM | IC50 [3]: 67.5 nM | IC50 [4]: 54.4 nM

CNC(=O)c1n[nH]c2cc(-c3cc(F)c(O)cc3CC(F)(F)F)nc(NCc3ccccc3N(C)S(=O)(=O)CCOC)c12 [Example 60, 6-[5-fluoro-4-hydroxy-2-(2,2,2-trifluoroethyl)phenyl]-4-[(2-{[(2-methoxyethyl)sulfonyl](methyl)amino}benzyl)amino]-N-methyl-1H-pyrazolo[4,3-c]pyridine-3-carboxamide]
IC50 [1]: 115 nM | IC50 [2]: 6.6 nM | IC50 [3]: 56.5 nM | IC50 [4]: 29.2 nM

CN(c1ccccc1CNc1nc(-c2cc(F)c(O)cc2CC(F)(F)F)cc2[nH]nc(C(N)=O)c12)S(=O)(=O)c1cccnc1 [Example 61, 6-[5-fluoro-4-hydroxy-2-(2,2,2-trifluoroethyl)phenyl]-4-({2-[methyl(pyridin-3-ylsulfonyl)amino]benzyl}amino)-1H-pyrazolo[4,3-c]pyridine-3-carboxamide]
IC50 [1]: 110 nM | IC50 [2]: 7.3 nM | IC50 [3]: 52.3 nM | IC50 [4]: 30.2 nM

CN(c1ncccc1CNc1nc(-c2cc(F)c(O)cc2CC(F)(F)F)cc2[nH]nc(C(N)=O)c12)S(C)(=O)=O [Example 62, 6-[5-fluoro-4-hydroxy-2-(2,2,2-trifluoroethyl)phenyl]-4-[({2-[methyl(methyl-sulfonyl)amino]pyridin-3-yl}methyl)amino]-1H-pyrazolo[4,3-c]pyridine-3-carboxamide]
IC50 [1]: 39.5 nM | IC50 [2]: 2.9 nM | IC50 [3]: 278 nM | IC50 [4]: 14.4 nM

CCN(c1ncccc1CNc1nc(-c2cc(F)c(O)cc2CC(F)(F)F)cc2[nH]nc(C(=O)NC)c12)S(C)(=O)=O [Example 63, 4-[({2-[ethyl(methylsulfonyl)amino]pyridin-3-yl}methyl)amino]-6-[5-fluoro-4-hydroxy-2-(2,2,2-trifluoroethyl)phenyl]-N-methyl-1H-pyrazolo[4,3-c]pyridine-3-carboxamide]
IC50 [1]: 82.1 nM | IC50 [2]: 5 nM | IC50 [3]: 107 nM | IC50 [4]: 22.5 nM

CN(c1ccccc1CNc1nc(-c2cc(F)c(O)cc2CC(F)(F)F)cc2[nH]nc(C(N)=O)c12)S(=O)(=O)c1ccc(N2CCOCC2)nc1 [Example 65, 6-[5-fluoro-4-hydroxy-2-(2,2,2-trifluoroethyl)phenyl]-4-{[2-(methyl{[6-(morpholin-4-yl)pyridin-3-yl]sulfonyl}amino)benzyl]amino}-1H-pyrazolo[4,3-c]pyridine-3-carboxamide]
IC50 [1]: 283 nM | IC50 [2]: 23.3 nM | IC50 [3]: 126 nM | IC50 [4]: 83.8 nM
